Measurements from ChEMBL document CHEMBL3868613, “Discovery of new chemical entities as potential leads against Mycobacterium tuberculosis” (Bioorg Med Chem Lett, 2016).
Values after ≈ are worked out from the molar mass of the structure shown.

Legend:
[1] = test system: Mycobacterium tuberculosis; assay: Antitubercular activity against Mycobacterium tuberculosis H37Ra transfected with TYOK plasmid assessed as relative light units after 4 days by selectable marker-free autoluminescent assay; assay type: functional; details: 96 h
[2] = Cytotoxicity against African green monkey Vero cells assessed as reduction cell survival rate after 72 hrs by CCK8 assay; assay type: toxicity, cell-based, Chlorocebus sabaeus
[3] = Solubility of the compound; assay type: physicochemical
[4] = test system: Mycobacterium tuberculosis; assay: In vivo anti-tubercular activity against Mycobacterium tuberculosis H37Ra transfected with TYOK plasmid infected in BALB/c mouse assessed as increase in ratio of RLU on day 3 to RLU on day 1 at 10 mg/kg/day administered QD for 3 days relative to control; assay type: functional
[5] = Clearance in Sprague-Dawley rat at 2 mg/kg, iv by LC/MS analysis; assay type: ADME, organism-based; details: in vivo
[6] = Tmax in Sprague-Dawley rat at 2 mg/kg, iv by LC/MS analysis; assay type: ADME, organism-based; details: in vivo
[7] = test system: Mycobacterium tuberculosis; assay: In vivo anti-tubercular activity against Mycobacterium tuberculosis H37Ra transfected with TYOK plasmid infected in BALB/c mouse assessed as ratio of RLU on day 3 to RLU on day 1 at 10 mg/kg/day administered QD for 3 days; assay type: functional
[8] = AUC (0 to infinity) in Sprague-Dawley rat at 10 mg/kg, administered through oral gavage by LC/MS analysis; assay type: ADME, organism-based; design: dose 10 mg/kg, time infinity, route oral; details: in vivo
[9] = test system: Mycobacterium tuberculosis; assay: In vivo anti-tubercular activity against Mycobacterium tuberculosis H37Ra transfected with TYOK plasmid infected in BALB/c mouse assessed as ratio of RLU on day 3 to RLU on day 1 at 40 mg/kg/day administered QD for 3 days; assay type: functional
[10] = Cmax in Sprague-Dawley rat at 10 mg/kg, administered through oral gavage by LC/MS analysis; assay type: ADME, organism-based; design: dose 10 mg/kg, route oral; details: in vivo
[11] = Oral bioavailability in Sprague-Dawley rat at 10 mg/kg by LC/MS analysis; assay type: ADME, organism-based; details: in vivo
[12] = Clearance in Sprague-Dawley rat at 10 mg/kg, administered through oral gavage by LC/MS analysis; assay type: ADME, organism-based; details: in vivo
[13] = test system: Mycobacterium tuberculosis; assay: In vivo anti-tubercular activity against Mycobacterium tuberculosis H37Ra transfected with TYOK plasmid infected in BALB/c mouse assessed as ratio of RLU on day 3 to RLU on day 1 at 2.5 mg/kg/day administered QD for 3 days; assay type: functional
[14] = Half life in Sprague-Dawley rat at 2 mg/kg, iv by LC/MS analysis; assay type: ADME, organism-based; details: in vivo
[15] = Tmax in Sprague-Dawley rat at 10 mg/kg, administered through oral gavage by LC/MS analysis; assay type: ADME, organism-based; details: in vivo
[16] = test system: Mycobacterium tuberculosis; assay: In vivo anti-tubercular activity against Mycobacterium tuberculosis H37Ra transfected with TYOK plasmid infected in BALB/c mouse assessed as decrease in ratio of RLU on day 3 to RLU on day 1 administered QD for 3 days; assay type: functional, organism-based
[17] = AUC (0 to infinity) in Sprague-Dawley rat at 2 mg/kg, iv by LC/MS analysis; assay type: ADME, organism-based; design: dose 2 mg/kg, time infinity, route intravenous; details: in vivo
[18] = Half life in Sprague-Dawley rat at 10 mg/kg, administered through oral gavage by LC/MS analysis; assay type: ADME, organism-based; details: in vivo
[19] = Cmax in Sprague-Dawley rat at 2 mg/kg, iv by LC/MS analysis; assay type: ADME, organism-based; design: dose 2 mg/kg, route intravenous; details: in vivo

SMILES | MIC [1] [mg/L] | IC50 at 72 h [2] [µM] | further results
Cc1ccc2oc(C)c(C(=O)NCc3ccc(N4CCC(c5ccc(OC(F)(F)F)cc5)CC4)cc3)c2c1 | > 30 |  | 
Cc1nc2sccn2c1C(=O)NCc1ccc(N2CCC(c3ccc(OC(F)(F)F)cc3)CC2)cc1 | 0.03 (≈ 0.0583 µM) | > 100 | 
Cc1cn2c(C(=O)NCc3ccc(N4CCC(c5ccc(OC(F)(F)F)cc5)CC4)cc3)c(C)nc2s1 | 0.01 (≈ 0.0189 µM) | > 100 | solubility [3]: Insoluble
NNC(=O)c1ccncc1 [ISONIAZID] | 0.1 (≈ 0.729 µM) |  | fold change (FC) [4]: 1.25
Cc1nn2ccc(=O)[nH]c2c1C(=O)NCc1ccc(N2CCC(c3ccc(OC(F)(F)F)cc3)CC2)cc1 | > 30 |  | 
Cc1nc2scc(C)n2c1C(=O)NCc1ccc(N2CCC(c3ccc(OC(F)(F)F)cc3)CC2)cc1 | 1 (≈ 1.89 µM) | > 100 | solubility [3]: Insoluble
Cc1nn2ccsc2c1C(=O)NCc1ccc(N2CCC(c3ccc(OC(F)(F)F)cc3)CC2)cc1 | 0.3 (≈ 0.583 µM) | > 100 | 
Cc1nn2c(C)csc2c1C(=O)NCc1ccc(N2CCC(c3ccc(OC(F)(F)F)cc3)CC2)cc1 | 0.1 (≈ 0.189 µM) | > 100 | 
Cc1cn2nc(C)c(C(=O)NCc3ccc(N4CCC(c5ccc(OC(F)(F)F)cc5)CC4)cc3)c2s1 | 0.03 (≈ 0.0568 µM) | > 100 | clearance [5]: 0.49 L/h/kg; Tmax [6]: 4.98 min; Ratio [7]: 0.91; AUC(0-inf) [8]: 8.56 µg·h/mL; Ratio [9]: 0.36; Cmax [10]: 0.373 µg/mL; bioavailability [11]: 41.7%; CL/F [12]: 1.21 L/h/kg; Ratio [13]: 1.05; half-life [14]: 14.1 h; Tmax [15]: 5 h; Activity [16]: Dose-dependent effect; AUC(0-inf) [17]: 4.11 µg·h/mL; half-life [18]: 13.4 h; Cmax [19]: 1.72 µg/mL
CCc1nc2ccc(Cl)cn2c1C(=O)NCc1ccc(N2CCC(c3ccc(OC(F)(F)F)cc3)CC2)cc1 [TELACEBEC] | 0.003 (≈ 0.00539 µM) |  | 
Cc1ccn2nc(C)c(C(=O)NCc3ccc(N4CCC(c5ccc(OC(F)(F)F)cc5)CC4)cc3)c2n1 | > 30 |  | 
CO[C@H]1/C=C/O[C@@]2(C)Oc3c(C)c(O)c4c(O)c(c(/C=N/N5CCN(C)CC5)c(O)c4c3C2=O)NC(=O)/C(C)=C\C=C\[C@H](C)[C@H](O)[C@@H](C)[C@@H](O)[C@@H](C)[C@H](OC(C)=O)[C@@H]1C [RIFAMPIN] | 0.003 (≈ 0.00365 µM) |  | 
Cc1ccc2[nH]c(C)c(C(=O)NCc3ccc(N4CCC(c5ccc(OC(F)(F)F)cc5)CC4)cc3)c2c1 | 10 (≈ 19.2 µM) |  | 
